Read-outs that look alike come from different tables or passages of the source.
Legend:
[1] = Oral PK, male Cynomolgus monkeys 25 mg/kg; settings: Liquid formulation 2, oral 25 mg/kg
[2] = tested on: MYC-CaP-CR tumors; assay: MYC-CaP-CR tumors subcutaneous in intact FVB male mice; type: in vivo, mouse
Source text: (§1) MYC-CaP-CR cells (Ellis L. et al., 2012. Prostate 72(6):587-591) were selected for castration resistance from genetically engineered MYC-CaP cells that express MYC from an AR-responsive promoter (Watson P A, et al., 2005. Cancer Res 65(24):11565-11571). Castration resistance in these cells is associated with the overexpression of full-length AR rather than an AR variant, such as AR-V7 in 22rv1 (Olson B M, et al., 2017. Cancer immunology research 5(12):1074-1085).

[3] = tested on: CRPC cell line 22rv1 xenograft
[4] = tested on: MV4-11 cells; assay: cells; settings: Homo sapiens, MV4-11, read-out: Inhibition Potency MV4-11-Luc Assay
[5] = Oral PK by formulation, male CD-1 mice 30 mg/kg; type: in vivo, mouse; settings: for Elimination rate k: male CD-1
[6] = molecular target: T1, PKNB(M. tuberculosis) (Mycobacterium tuberculosis, UniProt P9WI81); assay: KINOMEscan scanMAX; type: binding; settings: 2000 nM
T1 construct: purchased DiscoveRx (KINOMEscan scanMAX panel)
Source text: (§2) Nat. Biotechnol. 23, 329-336 (2005).
(§3) Percent Control (% Ctrl).
(§4) % Ctrl=100×(TS−CPOS)/(CNEG−CPOS) (eqn 1)

[7] = tested on: FLT3(ITD); assay: KINOMEscan scanMAX; type: binding; settings: 2000 nM
Source text: as §2, §3, §4

[8] = molecular target: T2, PRP4 (Homo sapiens, UniProt Q13523); assay: KINOMEscan scanMAX; type: binding; settings: PRP4, 2000 nM
T2 construct: DNA label (qPCR read-out); purchased DiscoverX (KINOMEscan)
Source text: as §2, §3, §4

[9] = tested on: FLT3(ITD, F691L); assay: KINOMEscan scanMAX; type: binding; settings: 2000 nM
Source text: as §2, §3, §4

[10] = molecular target: T3, CDC2L5 (Homo sapiens, UniProt Q14004); assay: KINOMEscan scanMAX; type: binding; settings: CDC2L5, 2000 nM
T3 construct: purchased DiscoverX (KINOMEscan scanMAX service)
Source text: as §2, §3, §4

[11] = molecular target: T4, PFPK5(P. falciparum) (Plasmodium falciparum, UniProt P61075); assay: KINOMEscan scanMAX; type: binding; settings: 2000 nM
T4 construct: purchased KINOMEscan (DiscoveRx) scanMAX panel
Source text: as §2, §3, §4

[12] = tested on: FLT3(ITD, D835V); assay: KINOMEscan scanMAX; type: binding; settings: 2000 nM
Source text: as §2, §3, §4

[13] = molecular target: T5, PFCDPK1(P. falciparum) (Plasmodium falciparum, UniProt P62344); assay: KINOMEscan scanMAX; type: binding; settings: 2000 nM
T5 construct: DNA label (qPCR read-out); purchased DiscoveRx (KINOMEscan scanMAX)
Source text: as §2, §3, §4

[14] = Oral PK by formulation, male FVB mice 50 mg/kg; settings: for Elimination rate k: male FVB
[15] = in vivo; settings: female, CD-1, mouse, in vivo, po, 30 mg/kg
[16] = tested on: MDA-MB-468 xenografts; assay: MDA-MB-468 TNBC xenografts in NSG female mice; settings: 250 ppm medicated diet plus 5 then 8 mg/kg daily gavage, 66 days
[17] = tested on: MYC-CAP-CR cells; assay: Short-term cell proliferation assay, MYC-CAP-CR; type: cell-based, murine; settings: androgen-containing media
Source text: as §1

[18] = Oral PK of a mixture of 15w and 15u, 30 mg/kg, female CD1 mice; settings: oral 30 mg/kg each
[19] = tested on: CDK8/19; assay: NFκB reporter assay in parental 293 reporter cells; type: cell-based
Source text: We have used a cell-based assay to measure the inhibition of CDK8/19 activity by thienopyridine derivatives. This assay, based on the role of CDK8/19 in NFκB-driven transcription (Chen, 2017), measures the effects of CDK8/19 on the expression of firefly luciferase reporter from a NFκB-dependent promoter in 293 cells. Lentiviral vector pHAGE-NFKB-TA-LUC-UBC-dTomato-W (Addgene #49335) was introduced into 293 cells and a clonal cell line showing the strongest induction of luciferase expression upon TNFα treatment was established and used as the reporter cell line. As a control for CDK8/19 dependence of NFκB inhibition, we have also introduced the same reporter construct into 293 cells with CRISPR/CAS9 knockout of both CDK8 and CDK19.
FIG. 2C and Table 1 compares the IC50 values for different thienopyridines measured in the NFκB reporter assay in parental 293-derived reporter cell line to the cell-based activity values measured for the same compounds by Saito (2013) based on their effect on alkaline phosphatase (ALPase), an indicator of differentiation to osteoblasts in the mouse bone marrow stromal cell line ST2. The latter effects are expressed as EC200, a concentration that enhances ALPase activity to 200% of control.

[20] = Mouse PK, intravenous 0.5 mg/kg; type: in vivo; settings: i.v. 0.5 mg/kg, male FVB mice, mixture
[21] = 50 mg/kg orally daily, castrated male nude mice

T1 sequence (P9WI81 whole entry): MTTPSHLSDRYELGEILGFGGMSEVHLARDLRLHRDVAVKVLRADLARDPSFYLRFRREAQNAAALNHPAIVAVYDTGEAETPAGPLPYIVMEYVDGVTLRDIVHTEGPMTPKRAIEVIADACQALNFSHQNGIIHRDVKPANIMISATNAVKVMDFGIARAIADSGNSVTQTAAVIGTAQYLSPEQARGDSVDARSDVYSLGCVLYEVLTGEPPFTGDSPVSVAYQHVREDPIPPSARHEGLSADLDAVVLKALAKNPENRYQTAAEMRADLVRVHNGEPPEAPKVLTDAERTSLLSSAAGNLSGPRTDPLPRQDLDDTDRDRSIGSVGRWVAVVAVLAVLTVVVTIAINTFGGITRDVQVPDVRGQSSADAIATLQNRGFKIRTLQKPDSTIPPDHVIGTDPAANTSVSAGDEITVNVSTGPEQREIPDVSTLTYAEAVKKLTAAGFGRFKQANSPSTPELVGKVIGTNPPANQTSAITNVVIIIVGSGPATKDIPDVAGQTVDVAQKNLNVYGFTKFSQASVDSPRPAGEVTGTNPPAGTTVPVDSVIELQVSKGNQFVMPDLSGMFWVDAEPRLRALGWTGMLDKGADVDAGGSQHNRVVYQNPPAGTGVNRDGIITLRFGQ
T5 sequence (P62344 whole entry): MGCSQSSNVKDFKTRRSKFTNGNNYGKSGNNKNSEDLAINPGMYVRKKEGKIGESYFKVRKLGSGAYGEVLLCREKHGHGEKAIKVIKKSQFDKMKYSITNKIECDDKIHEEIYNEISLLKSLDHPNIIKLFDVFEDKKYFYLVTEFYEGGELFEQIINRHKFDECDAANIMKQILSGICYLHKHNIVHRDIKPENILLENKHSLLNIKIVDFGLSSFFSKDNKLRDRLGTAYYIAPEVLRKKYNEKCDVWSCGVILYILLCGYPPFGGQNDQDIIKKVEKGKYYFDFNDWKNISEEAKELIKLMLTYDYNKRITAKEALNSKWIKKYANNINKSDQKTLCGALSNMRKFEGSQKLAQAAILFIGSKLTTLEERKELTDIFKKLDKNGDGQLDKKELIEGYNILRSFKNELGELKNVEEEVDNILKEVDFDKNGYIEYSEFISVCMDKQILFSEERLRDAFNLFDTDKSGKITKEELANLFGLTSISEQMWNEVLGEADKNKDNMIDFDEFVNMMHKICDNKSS
T3 sequence (Q14004 whole entry): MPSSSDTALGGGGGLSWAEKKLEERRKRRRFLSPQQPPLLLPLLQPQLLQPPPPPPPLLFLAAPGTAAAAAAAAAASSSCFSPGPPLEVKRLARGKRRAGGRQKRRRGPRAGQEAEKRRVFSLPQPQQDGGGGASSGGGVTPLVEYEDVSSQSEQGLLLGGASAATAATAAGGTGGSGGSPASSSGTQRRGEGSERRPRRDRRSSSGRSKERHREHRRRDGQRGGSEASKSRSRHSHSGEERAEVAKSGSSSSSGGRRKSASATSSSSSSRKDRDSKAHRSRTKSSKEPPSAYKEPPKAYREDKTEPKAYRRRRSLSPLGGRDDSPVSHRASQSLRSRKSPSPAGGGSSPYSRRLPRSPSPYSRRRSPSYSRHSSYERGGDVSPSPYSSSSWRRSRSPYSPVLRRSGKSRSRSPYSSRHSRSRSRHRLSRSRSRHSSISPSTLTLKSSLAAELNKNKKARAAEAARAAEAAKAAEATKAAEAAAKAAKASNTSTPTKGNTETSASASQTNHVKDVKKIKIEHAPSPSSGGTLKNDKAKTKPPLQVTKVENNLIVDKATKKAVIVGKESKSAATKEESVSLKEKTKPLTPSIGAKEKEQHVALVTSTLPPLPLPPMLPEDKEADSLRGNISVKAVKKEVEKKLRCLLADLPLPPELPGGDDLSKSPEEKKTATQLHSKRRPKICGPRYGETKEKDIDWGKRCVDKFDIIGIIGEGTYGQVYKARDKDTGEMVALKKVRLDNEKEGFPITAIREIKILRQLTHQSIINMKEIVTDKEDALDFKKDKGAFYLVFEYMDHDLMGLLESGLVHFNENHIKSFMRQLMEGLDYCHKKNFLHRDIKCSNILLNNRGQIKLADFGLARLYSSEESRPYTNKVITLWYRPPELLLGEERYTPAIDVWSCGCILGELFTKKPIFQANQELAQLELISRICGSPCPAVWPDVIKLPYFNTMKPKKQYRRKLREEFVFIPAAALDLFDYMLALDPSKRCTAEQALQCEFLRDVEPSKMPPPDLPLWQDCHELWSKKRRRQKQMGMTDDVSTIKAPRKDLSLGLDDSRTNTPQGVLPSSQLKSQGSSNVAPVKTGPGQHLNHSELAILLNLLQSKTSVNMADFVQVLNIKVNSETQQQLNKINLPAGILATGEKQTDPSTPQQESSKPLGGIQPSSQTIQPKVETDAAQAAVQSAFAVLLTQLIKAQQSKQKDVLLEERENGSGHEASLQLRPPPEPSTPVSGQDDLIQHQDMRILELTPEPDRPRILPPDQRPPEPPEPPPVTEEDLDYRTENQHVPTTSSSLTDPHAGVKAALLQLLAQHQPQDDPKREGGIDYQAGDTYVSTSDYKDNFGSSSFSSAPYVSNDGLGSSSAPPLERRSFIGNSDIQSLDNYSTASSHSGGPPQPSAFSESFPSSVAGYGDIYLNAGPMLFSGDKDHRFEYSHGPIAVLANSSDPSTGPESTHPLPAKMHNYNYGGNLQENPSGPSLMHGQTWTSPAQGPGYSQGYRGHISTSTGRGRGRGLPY
T4 sequence (P61075 whole entry): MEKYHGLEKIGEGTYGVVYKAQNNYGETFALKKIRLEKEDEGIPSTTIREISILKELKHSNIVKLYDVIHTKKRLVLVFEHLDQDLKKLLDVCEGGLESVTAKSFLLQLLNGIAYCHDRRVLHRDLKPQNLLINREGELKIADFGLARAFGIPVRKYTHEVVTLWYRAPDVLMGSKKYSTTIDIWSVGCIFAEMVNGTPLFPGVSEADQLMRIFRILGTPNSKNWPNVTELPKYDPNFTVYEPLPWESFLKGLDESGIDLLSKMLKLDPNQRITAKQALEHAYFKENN
T2 sequence (Q13523 whole entry): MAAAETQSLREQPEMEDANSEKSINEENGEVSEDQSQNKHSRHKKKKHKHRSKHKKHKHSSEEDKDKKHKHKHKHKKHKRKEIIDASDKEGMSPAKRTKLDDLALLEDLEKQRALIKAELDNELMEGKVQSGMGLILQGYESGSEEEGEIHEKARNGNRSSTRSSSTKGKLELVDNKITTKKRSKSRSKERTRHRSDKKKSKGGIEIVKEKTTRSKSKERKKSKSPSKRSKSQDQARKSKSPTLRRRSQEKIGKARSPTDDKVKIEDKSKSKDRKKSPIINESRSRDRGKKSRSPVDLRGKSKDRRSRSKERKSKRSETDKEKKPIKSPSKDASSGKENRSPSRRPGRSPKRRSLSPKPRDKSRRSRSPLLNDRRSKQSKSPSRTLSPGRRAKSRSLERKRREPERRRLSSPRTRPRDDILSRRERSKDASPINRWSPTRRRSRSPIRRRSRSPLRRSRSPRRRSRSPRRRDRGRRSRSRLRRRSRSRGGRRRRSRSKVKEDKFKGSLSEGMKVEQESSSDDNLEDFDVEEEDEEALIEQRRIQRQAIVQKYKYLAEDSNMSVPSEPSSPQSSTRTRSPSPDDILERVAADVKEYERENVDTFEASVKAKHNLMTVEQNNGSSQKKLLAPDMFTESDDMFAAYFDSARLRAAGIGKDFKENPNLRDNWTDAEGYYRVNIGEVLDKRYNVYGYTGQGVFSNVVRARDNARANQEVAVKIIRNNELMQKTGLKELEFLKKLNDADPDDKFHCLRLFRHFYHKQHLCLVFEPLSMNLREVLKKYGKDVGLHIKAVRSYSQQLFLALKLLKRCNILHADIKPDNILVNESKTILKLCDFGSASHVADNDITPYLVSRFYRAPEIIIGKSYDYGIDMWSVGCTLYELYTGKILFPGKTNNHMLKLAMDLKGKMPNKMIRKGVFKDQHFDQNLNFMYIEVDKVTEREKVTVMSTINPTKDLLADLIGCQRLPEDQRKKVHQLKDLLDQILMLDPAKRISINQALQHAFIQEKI

For `CN(C)C(=O)c1ccc(N2CCCN(c3ccnc4sc(C(N)=O)c(N)c34)CC2)cc1` [Compound 15u, 3-amino-4-(4-(4-(dimethylcarbamoyl)phenyl)-1,4-diazepan-1-yl)thieno[2,3-b]pyridine-2-carboxamide], the adverse effects [1] was “no adverse effects were observed”, the “MYC-CaP-CR tumor volume and weight” value [2] was “modest effect” and the “22rv1 tumor growth over the long term” value ([3]; 50 mg/kg once a day, 25 mg/kg twice a day, 50 mg/kg twice a day) was “drastically inhibited 22rv1 tumor growth”. For the same compound, the “22rv1 xenograft tumor growth” value [3, 21] was “strongly suppressed the tumor growth”, the “adverse effects and mouse body weight” value [3, 21] was “no apparent adverse effects and no diminution of mouse body weight” and the IC50 [4] was 30 nM. It also gave an Elimination rate k ([5]; LF-V#2, oral 30 mg/kg) of 0.22 h⁻¹, an Elimination rate k ([5]; Sus-V#1, oral 30 mg/kg) of 0.37 h⁻¹ and an Elimination rate k ([5]; Sus-V#2, oral 30 mg/kg) of 0.38 h⁻¹. For the same compound, the “increase of AUC, Liquid formulation 2 vs both suspension vehicles” value ([5]; oral 30 mg/kg, male CD-1 mice) was 2-3 fold, the “increase of t1/2, Liquid formulation 2 vs both suspension vehicles” value ([5]; oral 30 mg/kg, male CD-1 mice) was ~1.7 fold and the “% Ctrl” value [6] was 100 % Ctrl. For the same compound, the “% Ctrl” value [7] was 82 % Ctrl, the “% Ctrl” value [8] was 100 % Ctrl and the “% Ctrl” value [9] was 95 % Ctrl. For the same compound, the “% Ctrl” value [10] was 71 % Ctrl, the “% Ctrl” value [11] was 68 % Ctrl and the “% Ctrl” value [12] was 41 % Ctrl. For the same compound, the “% Ctrl” value [13] was 94 % Ctrl, the Elimination rate k ([14]; LF-V#1, oral 50 mg/kg) was 0.13 h⁻¹ and the Elimination rate k ([14]; Sus-V#1, oral 50 mg/kg) was 0.25 h⁻¹. The “increase of AUC, Liquid formulation 1 vs Suspension Vehicle 1” value ([14]; oral 50 mg/kg, male FVB mice) was 2.3 fold, the “increase of t1/2, Liquid formulation 1 vs Suspension Vehicle 1” value ([14]; oral 50 mg/kg, male FVB mice) was ~2 fold and the AUC(0-t) [15] was 6600 ng·h/mL. The MDA-MB-468 tumor volume [16] was “significant reduction in tumor volume”, the “MDA-MB-468 tumor weights at the end of the study” value [16] was “significantly lower” and the mouse body weights [16] was “no detrimental effects”. For the same compound, the MYC-CAP-CR cell growth [17] was “little effect”, the “average serum concentration at the latest timepoint (8 hrs) as % of Cmax” value [18] was 64.4 % of Cmax and the IC50 ([19]; NFκB Activity Assay as described in Example 1, read-out: Inhibition Potency HEK293-NFkB-Luc Assay) was 10.3 nM. For the same compound, the IC50 ([19]; parental 293-derived reporter cell line, read-out: NFκB activity Assay IC50) was 10 nM and the Elimination rate [20] was 1.98 h⁻¹.
